Patent US20250289788A1, “HALOALKYL SULFONANILIDE COMPOUND AND HERBICIDE CONTAINING THE SAME” (SDS BIOTECH K.K., priority 2022, published 2025)

Tests used:
Type in all cases: in vivo
[1] = tested on: Schoenoplectiella juncoides (SJ); assay: Test Example 1: herbicidal effect test using paddy field flooding treatment; conditions: dose 16 g a.i./ha, water surface application, 21 days after treatment
Protocol: (§1) <Test Example 1> Herbicidal Effect Test Using Paddy Field Flooding Treatment
(§2) After each 40-cm^2 plastic cup was loaded with puddled paddy field soil, seeds of each of the following species were sown and grown in a greenhouse: Echinochloa crus-galli var. oryzicola (EC), Schoenoplectiella juncoides (SJ), Monochoria vaginalis (MV), or Ammannia multiflora (AM). After plants were grown for 14 days, water was flooded to a depth of 3 cm, and a 10% wettable powder, which had been adjusted according to Formulation Example 1, was diluted with distilled water and applied dropwise to the water surface. The amount applied was 1000, 500, 250, 125, 63, 31, or 16 g of active ingredient per hectare. The test was conducted in two series. Herbicidal efficacy (degree (%) of suppression of growth of terrestrial part: 100 (complete death) to 0 (no action)) was investigated at 21 days after the treatment.

Ammannia multiflora (AM) = assay: Comparative Example: herbicidal efficacy test of treatment during growth stage under flooding conditions; conditions: treatment during growth stage (14 days after sowing), day 21 after treatment
Source text: (§3) The control compound a is described as Compound No. III-1 on page 245 of PLT 5, and the control compound b is described as Compound No. III-9 on page 245 of PTL 5. […] As an example, herbicidal efficacy against critical paddy field weeds such as Monochoria vaginalis (MV) and Ammannia multiflora (AM) as well as Oryza sativa (OS) chemical damage were compared and are specifically described below as a Comparative Example.
(§4) [Comparative Example] Herbicidal Efficacy Test of Treatment During Growth Stage […] Under Flooding Conditions
(§5) After each 40-cm^2 plastic cup was loaded with puddled paddy field soil, seeds of each of Monochoria vaginalis (MV) or Ammannia multiflora (AM) were sown and grown in a greenhouse. After plants were grown for 14 days, one rice plant (variety: Nippon-bare) at the 2-leaf stage was transplanted at a transplanting depth of 1 cm. Water was flooded to a depth of 3 cm, and wettable powder containing the present invention compound, which had been adjusted according to Formulation Example 1, or each control compound was diluted with distilled water and applied dropwise to the water surface. The amount applied was 125, 63, or 31 g of active ingredient per hectare. The test was conducted in two series. On day 21 after treatment, the herbicidal efficacy and chemical damage were examined according to the following criteria.
(§6) 9-10 . . . Herbicidal activity “Maximum”, 90% or higher herbicidal efficacy or chemical damage
(§7) 7 to 8 . . . Herbicidal activity “high”, 70% or higher and less than 90% herbicidal efficacy or chemical damage
(§8) 5 to 6 . . . Herbicidal activity “medium”, 50% or higher and less than 70% herbicidal efficacy or chemical damage
(§9) 0 to 4 . . . Herbicidal activity “none to low”, 0% or higher and less than 50% herbicidal efficacy or chemical damage

[2] = tested on: Monochoria vaginalis (MV); assay: as above; conditions: treatment during growth stage (14 days after sowing), day 21 after treatment
Source text: as §3, §4, §5, §6, §7, §8, §9

Oryza sativa (OS) = assay: Comparative Example: chemical damage to transplanted rice under flooding conditions; conditions: applied dropwise to water surface, day 21 after treatment
Source text: as §3, §4, §5, §6, §7, §8, §9

[3] = tested on: Echinochloa crus-galli var. oryzicola (EC); assay: Test Example 1: herbicidal effect test using paddy field flooding treatment; conditions: dose 1000 g a.i./ha, water surface application, 21 days after treatment
Protocol: as §1, §2

| Compound | herbicidal efficacy (degree (%) of suppression of growth of terrestrial part) [1] [%] | herbicidal efficacy AM (score 0-10) (Ammannia multiflora (AM); 31 g a.i./ha) | herbicidal efficacy AM (score 0-10) (Ammannia multiflora (AM); 63 g a.i./ha) | herbicidal efficacy AM (score 0-10) (Ammannia multiflora (AM); 125 g a.i./ha) | herbicidal efficacy MV (score 0-10) ([2]; 31 g a.i./ha) | herbicidal efficacy MV (score 0-10) ([2]; 63 g a.i./ha) | herbicidal efficacy MV (score 0-10) ([2]; 125 g a.i./ha) | chemical damage to transplanted rice OS (score 0-10) (Oryza sativa (OS); 31 g a.i./ha) | chemical damage to transplanted rice OS (score 0-10) (Oryza sativa (OS); 63 g a.i./ha) | chemical damage to transplanted rice OS (score 0-10) (Oryza sativa (OS); 125 g a.i./ha) | herbicidal efficacy (degree (%) of suppression of growth of terrestrial part) [3] [%] |
| --- | --- | --- | --- | --- | --- | --- | --- | --- | --- | --- | --- |
| CC=CC(=O)N(c1ccccc1CN1CCc2c(F)ccc(F)c2C1=O)S(=O)(=O)C(F)(F)F [Compound 3-116] | ≥ 80 |  |  |  |  |  |  |  |  |  |  |
| CCOC(=O)N(c1ccccc1CN1CCCCC1=O)S(=O)(=O)C(F)(F)F [Compound b] |  | 10 | 10 | 10 | 7 | 10 | 10 | 3 | 8 | 10 |  |
| CCOC(=O)N(c1ccccc1CN1CCc2ccccc2C1=O)S(=O)(=O)C(F)(F)F [Compound 3-139] |  | 10 | 10 | 10 | 7 | 10 | 10 | 0 | 0 | 0 |  |
| O=C1Cc2cc(F)ccc2N1Cc1ccccc1NS(=O)(=O)C(F)(F)F [Compound 8-2] |  |  |  |  |  |  |  |  |  |  | ≥ 80 |
| O=C1CCCCN1Cc1ccccc1NS(=O)(=O)C(F)(F)F [Compound a] |  | 10 | 10 | 10 | 10 | 10 | 10 | 6 | 10 | 10 |  |
| O=C1c2ccccc2CCN1Cc1ccccc1NS(=O)(=O)C(F)(F)F [Compound 3-1] |  | 10 | 10 | 10 | 10 | 10 | 10 | 0 | 0 | 0 |  |
